In PubChem BioAssay (NCI):
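Following 48 hours of exposure in 96-well plates, responses at five concentrations were used to interpolate endpoints linearly. TGI is the concentration that stops growth completely.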

How the values were obtained:
Experiment in all cases: inhibition of tumour cell growth, NCI panel, 48 h
NCI/ADR-RES ovarian = test system: NCI/ADR-RES ovarian
HT29 colon = test system: HT29 colon
HS 578T breast = test system: HS 578T breast
ACHN renal = test system: ACHN renal
UACC-62 melanoma = test system: UACC-62 melanoma
RPMI-8226 leukemia = test system: RPMI-8226 leukemia
SNB-19 CNS = test system: SNB-19 CNS
T-47D breast = test system: T-47D breast
OVCAR-5 ovarian = test system: OVCAR-5 ovarian
HOP-92 NSCLC = test system: HOP-92 NSCLC
K-562 leukemia = test system: K-562 leukemia
DU-145 prostate = test system: DU-145 prostate
NCI-H226 lung = test system: NCI-H226 lung
MDA-MB-231 breast = test system: MDA-MB-231 breast
HCC-2998 colon = test system: HCC-2998 colon
OVCAR-8 ovarian = test system: OVCAR-8 ovarian
MOLT-4 leukemia = test system: MOLT-4 leukemia
A549 NSCLC = test system: A549 NSCLC
SK-MEL-2 melanoma = test system: SK-MEL-2 melanoma
HCT-15 colon = test system: HCT-15 colon
786-0 renal = test system: 786-0 renal
SR leukemia = test system: SR leukemia
SK-OV-3 ovarian = test system: SK-OV-3 ovarian
NCI-H522 lung = test system: NCI-H522 lung
UACC-257 melanoma = test system: UACC-257 melanoma
M14 melanoma = test system: M14 melanoma
NCI-H460 lung = test system: NCI-H460 lung
U251 CNS = test system: U251 CNS
SW-620 colon = test system: SW-620 colon
PC-3 prostate = test system: PC-3 prostate
IGROV1 ovarian = test system: IGROV1 ovarian
SF-268 CNS = test system: SF-268 CNS
COLO 205 colon = test system: COLO 205 colon
A498 renal = test system: A498 renal
HOP-62 NSCLC = test system: HOP-62 NSCLC
TK-10 renal = test system: TK-10 renal
KM12 colon = test system: KM12 colon
OVCAR-3 ovarian = test system: OVCAR-3 ovarian
MDA-MB-435 = test system: MDA-MB-435
SNB-75 CNS = test system: SNB-75 CNS
CAKI-1 renal = test system: CAKI-1 renal
OVCAR-4 ovarian = test system: OVCAR-4 ovarian
BT-549 breast = test system: BT-549 breast
HCT-116 colon = test system: HCT-116 colon
SK-MEL-28 melanoma = test system: SK-MEL-28 melanoma
UO-31 renal = test system: UO-31 renal
RXF 393 renal = test system: RXF 393 renal
SK-MEL-5 melanoma = test system: SK-MEL-5 melanoma
MDA-N = test system: MDA-N
SF-539 CNS = test system: SF-539 CNS
CCRF-CEM leukemia = test system: CCRF-CEM leukemia
MALME-3M melanoma = test system: MALME-3M melanoma
EKVX NSCLC = test system: EKVX NSCLC
NCI-H23 lung = test system: NCI-H23 lung
SN12C renal = test system: SN12C renal
LOX IMVI melanoma = test system: LOX IMVI melanoma
SF-295 CNS = test system: SF-295 CNS
HL-60(TB) leukemia = test system: HL-60(TB) leukemia
MCF7 breast = test system: MCF7 breast

Measured: TGI

CN(C)c1nc2n(CCO)c(-c3ccccc3)c(-c3ccccc3)nc-2c(=O)n1
> 100 µM: NCI/ADR-RES ovarian | HT29 colon | HS 578T breast | ACHN renal | UACC-62 melanoma | RPMI-8226 leukemia | SNB-19 CNS | T-47D breast | OVCAR-5 ovarian | HOP-92 NSCLC | K-562 leukemia | DU-145 prostate | NCI-H226 lung | MDA-MB-231 breast | HCC-2998 colon | OVCAR-8 ovarian | MOLT-4 leukemia | A549 NSCLC | SK-MEL-2 melanoma | HCT-15 colon | 786-0 renal | SR leukemia | SK-OV-3 ovarian | NCI-H522 lung | UACC-257 melanoma | M14 melanoma | NCI-H460 lung | U251 CNS | SW-620 colon | PC-3 prostate | IGROV1 ovarian | SF-268 CNS | COLO 205 colon | A498 renal | HOP-62 NSCLC | TK-10 renal | KM12 colon | OVCAR-3 ovarian | MDA-MB-435 | SNB-75 CNS | CAKI-1 renal | OVCAR-4 ovarian | BT-549 breast | HCT-116 colon | SK-MEL-28 melanoma | UO-31 renal | RXF 393 renal | SK-MEL-5 melanoma | MDA-N | SF-539 CNS | CCRF-CEM leukemia | MALME-3M melanoma | EKVX NSCLC | NCI-H23 lung | SN12C renal | LOX IMVI melanoma | SF-295 CNS

COc1ccc(/C=C2\N=C3Sc4c(nc[nH]c4=O)N3C2=O)cc1
> 100 µM: NCI/ADR-RES ovarian | HT29 colon | HS 578T breast | HL-60(TB) leukemia | ACHN renal | RPMI-8226 leukemia | SNB-19 CNS | MCF7 breast | T-47D breast | OVCAR-5 ovarian | HOP-92 NSCLC | K-562 leukemia | DU-145 prostate | NCI-H226 lung | MDA-MB-231 breast | HCC-2998 colon | OVCAR-8 ovarian | MOLT-4 leukemia | A549 NSCLC | SK-MEL-2 melanoma | HCT-15 colon | 786-0 renal | SK-OV-3 ovarian | NCI-H522 lung | UACC-257 melanoma | M14 melanoma | U251 CNS | SW-620 colon | PC-3 prostate | IGROV1 ovarian | SF-268 CNS | COLO 205 colon | A498 renal | HOP-62 NSCLC | TK-10 renal | KM12 colon | OVCAR-3 ovarian | MDA-MB-435 | SNB-75 CNS | CAKI-1 renal | OVCAR-4 ovarian | HCT-116 colon | SK-MEL-28 melanoma | UO-31 renal | RXF 393 renal | SK-MEL-5 melanoma | MDA-N | SF-539 CNS | CCRF-CEM leukemia | MALME-3M melanoma | EKVX NSCLC | NCI-H23 lung | SN12C renal | LOX IMVI melanoma | SF-295 CNS
